Experimental data published in patent publication US10772893B2, “2-(morpholin-4-yl)-1,7-naphthyridines” (BAYER PHARMA AKTIENGESELLSCHAFT, priority 2014, dated 2020).

Tested on: HeLa cells
Experiment: Proliferation assay, crystal violet staining
Conditions: Homo sapiens, 96 h, read-out: Inhibition of HeLa cell proliferation, HeLa cells, 4 days incubation
Protocol: After 24 hours, the cells of one plate (zero plate) were dyed with crystal violet (see below), whereas the medium of the other plates was replaced with fresh culture medium (200 μl) to which the test substances were added in various concentrations (0 μM, and also in the range of 0.001-10 μM; the final concentration of the solvent dimethyl sulphoxide was 0.1 or 0.5%). The cells were incubated for 4 days in the presence of the test substances. […] After washing the fixed cells three times with water, the plates were dried at room temperature. The cells were stained by adding 100 μl/measurement point of a 0.1% strength crystal violet solution (pH adjusted to pH 3 by adding acetic acid). After washing the cells three times with water, the plates were dried at room temperature. The dye was dissolved by adding 100 μl/measurement point of a 10% strength acetic acid solution. […] The percentage change in cell growth was calculated by normalizing the measured values to the absorbance values of the zero plate (=0%) and the absorbance of the untreated (0 W) cells (=100%). The IC50 values were determined by means of a four parameter fit.

Row | SMILES | IC50 [nM]
1 | C[C@@H]1COCCN1c1cc(C2CC[S+]([O-])CC2)c2ccnc(-c3ccn[nH]3)c2n1 (stereo partly drawn) [Example 203, 2-[(3R)-3-methylmorpholin-4-yl]-4-[1-oxidotetrahydro-2H-thiopyran-4-yl]-8-(1H-pyrazol-5-yl)-1,7-naphthyridine] | 998
2 | C[C@@H]1COCCN1c1cc(C2CCS(=O)(=O)CC2)c2ccnc(-c3ccn[nH]3)c2n1 [Example 204, 4-(1,1-dioxidotetrahydro-2H-thiopyran-4-yl)-2-[(3R)-3-methylmorpholin-4-yl]-8-(1H-pyrazol-5-yl)-1,7-naphthyridine] | 568
3 | CC(C)Oc1ncccc1-c1cc(N2CCOC[C@H]2C)nc2c(-c3ccn[nH]3)nccc12 [Example 219, 2-[(3R)-3-methylmorpholin-4-yl]-4-[2-(propan-2-yloxy)pyridin-3-yl]-8-(1H-pyrazol-5-yl)-1,7-naphthyridine] | 2980
4 | C[C@@H]1COCCN1c1cc(-c2cc(Cl)cnc2F)c2ccnc(-c3ccn[nH]3)c2n1 [Example 229, 4-(5-chloro-2-fluoropyridin-3-yl)-2-[(3R)-3-methylmorpholin-4-yl]-8-(1H-pyrazol-5-yl)-1,7-naphthyridine] | 447
5 | C[C@@H]1COCCN1c1cc(-c2ccncc2F)c2ccnc(-c3ccn[nH]3)c2n1 [Example 230, 4-(3-fluoropyridin-4-yl)-2-[(3R)-3-methylmorpholin-4-yl]-8-(1H-pyrazol-5-yl)-1,7-naphthyridine] | 380
6 | Cc1cc(-c2cc(N3CCOC[C@H]3C)nc3c(-c4ccn[nH]4)nccc23)cnc1C [Example 232, 4-(5,6-dimethylpyridin-3-yl)-2-[(3R)-3-methylmorpholin-4-yl]-8-(1H-pyrazol-5-yl)-1,7-naphthyridine] | 341
7 | Cc1ncc(-c2cc(N3CCOC[C@H]3C)nc3c(-c4ccn[nH]4)nccc23)cc1F [Example 233, 4-(5-fluoro-6-methylpyridin-3-yl)-2-[(3R)-3-methylmorpholin-4-yl]-8-(1H-pyrazol-5-yl)-1,7-naphthyridine] | 180
8 | Cc1cc(-c2cc(N3CCOC[C@H]3C)nc3c(-c4ccn[nH]4)nccc23)cs1 [Example 234, 2-[(3R)-3-methylmorpholin-4-yl]-4-(5-methylthiophen-3-yl)-8-(1H-pyrazol-5-yl)-1,7-naphthyridine] | 1210
9 | C[C@@H]1COCCN1c1cc(-c2ccsc2Cl)c2ccnc(-c3ccn[nH]3)c2n1 [Example 236, 4-(2-chlorothiophen-3-yl)-2-[(3R)-3-methylmorpholin-4-yl]-8-(1H-pyrazol-5-yl)-1,7-naphthyridine] | 792
10 | C[C@@H]1COCCN1c1cc(-c2cncc3ccccc23)c2ccnc(-c3ccn[nH]3)c2n1 [Example 237, 4-(isoquinolin-4-yl)-2-[(3R)-3-methylmorpholin-4-yl]-8-(1H-pyrazol-5-yl)-1,7-naphthyridine] | 528
11 | C[C@@H]1COCCN1c1cc(C2CCSCC2)c2ccnc(-c3ccn[nH]3)c2n1 [Example 241, 2-[(3R)-3-methylmorpholin-4-yl]-8-(1H-pyrazol-5-yl)-4-(tetrahydro-2H-thiopyran-4-yl)-1,7-naphthyridine] | 171
12 | C[C@@H]1COCCN1c1cc(C2=CCCN(C)C2)c2ccnc(-c3ccn[nH]3)c2n1 [Example 242, 2-[(3R)-3-methylmorpholin-4-yl]-4-(1-methyl-1,2,5,6-tetrahydropyridin-3-yl)-8-(1H-pyrazol-5-yl)-1,7-naphthyridine] | 811
13 | C[C@@H]1COCCN1c1cc(C2=CCN(C)CC2)c2ccnc(-c3ccn[nH]3)c2n1 [Example 243, 2-[(3R)-3-methylmorpholin-4-yl]-4-(1-methyl-1,2,3,6-tetrahydropyridin-4-yl)-8-(1H-pyrazol-5-yl)-1,7-naphthyridine] | 360

Next, values leading:

Row | IC50 [nM] | SMILES
14 | > 3000 | O=S(=O)(c1ccccc1)c1cc(N2CCOCC2)nc2c(-c3ccn[nH]3)nccc12 [Example 198, 2-(morpholin-4-yl)-4-(phenylsulfonyl)-8-(1H-pyrazol-5-yl)-1,7-naphthyridine]
15 | 1960 | CCS(=O)(=O)c1cc(N2CCOCC2)nc2c(-c3ccn[nH]3)nccc12 [Example 200, 4-(ethylsulfonyl)-2-(morpholin-4-yl)-8-(1H-pyrazol-5-yl)-1,7-naphthyridine]
16 | > 3000 | [O-][S+](c1ccccc1)c1cc(N2CCOCC2)nc2c(-c3ccn[nH]3)nccc12 (stereo not drawn) [Example 201, 2-(morpholin-4-yl)-4-(phenylsulfinyl)-8-(1H-pyrazol-5-yl)-1,7-naphthyridine]
17 | 1530 | C[S+]([O-])c1cc(N2CCOCC2)nc2c(-c3ccn[nH]3)nccc12 (stereo not drawn) [Example 202, 4-(methylsulfinyl)-2-(morpholin-4-yl)-8-(1H-pyrazol-5-yl)-1,7-naphthyridine]
18 | > 3000 | COc1ccc(Sc2cc(N3CCOCC3)nc3c(-c4ccn[nH]4)nccc23)cc1 [Example 213, 4-[(4-methoxyphenyl)sulfanyl]-2-(morpholin-4-yl)-8-(1H-pyrazol-5-yl)-1,7-naphthyridine]
19 | > 3000 | Cc1cc(-c2cc(N3CCOCC3)nc3c(-c4ccn[nH]4)nccc23)n[nH]1 [Example 214, 4-(5-methyl-1H-pyrazol-3-yl)-2-(morpholin-4-yl)-8-(1H-pyrazol-5-yl)-1,7-naphthyridine]
20 | > 3000 | O=C1CCCN1c1cc(N2CCOCC2)nc2c(-c3ccn[nH]3)nccc12 [Example 215, 1-[2-(morpholin-4-yl)-8-(1H-pyrazol-5-yl)-1,7-naphthyridin-4-yl]pyrrolidin-2-one]
21 | 300 | Cc1ncccc1-c1cc(N2CCOC[C@H]2C)nc2c(-c3ccn[nH]3)nccc12 [Example 218, 2-[(3R)-3-methylmorpholin-4-yl]-4-(2-methylpyridin-3-yl)-8-(1H-pyrazol-5-yl)-1,7-naphthyridine]
22 | > 3000 | c1cc(-c2cc(N3CCOCC3)nc3c(-c4ccn[nH]4)nccc23)ccn1 [Example 221, 2-(morpholin-4-yl)-8-(1H-pyrazol-5-yl)-4-(pyridin-4-yl)-1,7-naphthyridine]
23 | 975 | COc1ccc(Sc2cc(N3CCOC[C@H]3C)nc3c(-c4ccn[nH]4)nccc23)cc1 [Example 222, 4-[(4-methoxyphenyl)sulfanyl]-2-[(3R)-3-methylmorpholin-4-yl]-8-(1H-pyrazol-5-yl)-1,7-naphthyridine]
24 | 1940 | COc1cnccc1-c1cc(N2CCOC[C@H]2C)nc2c(-c3ccn[nH]3)nccc12 [Example 227, 4-(3-methoxypyridin-4-yl)-2-[(3R)-3-methylmorpholin-4-yl]-8-(1H-pyrazol-5-yl)-1,7-naphthyridine]
25 | 950 | COc1ccsc1-c1cc(N2CCOC[C@H]2C)nc2c(-c3ccn[nH]3)nccc12 [Example 235, 4-(3-methoxythiophen-2-yl)-2-[(3R)-3-methylmorpholin-4-yl]-8-(1H-pyrazol-5-yl)-1,7-naphthyridine]
26 | 1180 | C[C@@H]1COCCN1c1cc(-c2ccc(Cl)s2)c2ccnc(-c3ccn[nH]3)c2n1 [Example 238, 4-(5-chlorothiophen-2-yl)-2-[(3R)-3-methylmorpholin-4-yl]-8-(1H-pyrazol-5-yl)-1,7-naphthyridine]
27 | 1130 | Cc1csc(-c2cc(N3CCOC[C@H]3C)nc3c(-c4ccn[nH]4)nccc23)c1 [Example 239, 2-[(3R)-3-methylmorpholin-4-yl]-4-(4-methylthiophen-2-yl)-8-(1H-pyrazol-5-yl)-1,7-naphthyridine]
